The text below walks through data of patent publication US11986477B2, “Drug combination and use for treating tumors” (INXMED (NANJING) CO., LTD., priority 2022, dated 2024).

One series deals with lung cancer KPL cells. The experiment in a line: Lung cancer KPL cells incubated with drug for 48 hours, observed under microscope. Format: cell-based. The conditions noted are these: 48 h incubation; IN10018 10 μM, AZD9291 10 μM, Almonertinib 4.7 μM, Alflutinib 4.7 μM, single or combined.
Series [1] concerns human non-small cell lung cancer HCC827 cells. The experiment in a line: In vivo antitumor efficacy, BALB/c-nude mouse subcutaneous xenograft tumor model of HCC827 cells. The following applies: for tumor growth inhibition compared with the blank control group / TGI / Tumor volume on day 32 / Tumor volume on day 37: AZD9291 3 mg/kg, IN10018 25 mg/kg, combination 3+25 mg/kg; for tumor growth inhibition compared with the blank control group: statistical difference from control; for Tumor volume on day 0: baseline at grouping, n=5; for Tumor volume on day 0 / Tumor volume on day 32 / Tumor volume on day 37: mean ± SD; for TGI: day 32, vs control group; for TGI / Tumor volume on day 32 / Tumor volume on day 37: PO QD; for Tumor volume on day 32: day 32 after administration by groups; for Tumor volume on day 37: day 37 after administration by groups. The procedure:
5% CO2 incubator. The cells were passaged by routine digestion with trypsin-EDTA two to three times a week. When the cells were in the exponential growth phase with 80%-90% saturation, the cells were harvested, counted and inoculated. 0.1 mL of a cell suspension containing 5×10^6 cells was inoculated subcutaneously into the right back of each mouse.
The experiment criteria was to investigate whether the tumor growth was inhibited, delayed or cured. Tumor diameter was measured three times a week using vernier calipers. Tumor volume was calculated according to the following formula: V=0.5×a×b^2, where a and b indicated the long diameter and short diameter of the tumor, respectively.
The tumor suppressive efficacy of the compounds was evaluated by TGI (%), which reflects the tumor growth inhibition rate.
Statistical analysis was performed based on tumor volume at the end of the trial using Prism Graphpad software. Comparisons among multiple groups were analyzed using Two-way ANOVA, Fisher's LSD test method, and P<0.05 was considered a significant difference. Comparisons between the two groups were analyzed using the t-test, Mann Whitney test method test, and P<0.05 was considered a significant difference.

For series [2], the system named is mouse colon cancer CT-26 cells. The experiment in a line: In vivo antitumor efficacy, subcutaneous allograft tumor model of colon cancer CT-26 cells in BALB/c mice. The following applies: for Tumor volume on day 0: baseline at grouping, mean ± standard error, n=6; for TGI: day 15, vs control group; for TGI / Tumor volume on day 15: IN10018 25 mg/kg, combination 20+25 mg/kg, p.o. QD; for Tumor volume on day 15: day 15 after administration by groups. The procedure:
[…] incubator. The cells were passaged by routine digestion with trypsin-EDTA two to three times a week. When the cells were in the exponential growth phase with […] saturation, the cells were harvested, counted and inoculated.
0.1 mL of a cell suspension containing 3×10^5 cells was inoculated subcutaneously into the right back of each mouse. When the tumor volume reached ˜59 mm^3 (on day 12 after cell inoculation), the mice were randomized into groups for administration according to the tumor volume, and the grouping information is shown in Table 2.
The tumor diameter was measured with a vernier caliper three times a week. The tumor volume was calculated by the formula: V=0.5×a×b^2, where a and b indicated the long and short diameter of the tumor, respectively.
Statistical analysis was performed based on tumor volume and tumor weight at the end of the trial using Prism Graphpad software. Comparisons among multiple groups were analyzed using Two-way ANOVA, Fisher's LSD test method. P<0.05 was considered a significant difference.

The nature of series [3]: Body weight and survival of HCC827 tumor-bearing BALB/c-nude mice during dosing. The series is classed as in vivo. The procedure:
The use and welfare of laboratory animals were in accordance with the AAALAC regulations. Animals were monitored daily for health and death. Routine examinations included observation of tumor growth and the effects of drug treatment on the animals' daily behavior such as behavioral activities, food and water intake (visual inspection only), weight changes, appearance signs or other abnormalities. Animal deaths and side effects in each group were recorded based on the number of animals in each group.
The assay was carried out according to the dosing regimen, during which the animals were observed daily for feeding and drinking, and their body weights were recorded three times a week.

Where “and” joins values, the source holds several entries; their conditions need not be identical. Equal values may be shown once.

As to `COc1cc(C(=O)NC2CCN(C)CC2)c(F)cc1Nc1ncc(C(F)(F)F)c(Oc2cccc3c2C(=O)N(C)C3)n1` [IN10018], in the series on lung cancer KPL cells, the “cell status observed under microscope” value was “better cell status”. Besides, in series [1], the “tumor growth inhibition compared with the blank control group” value is reported as “obvious tumor growth inhibition”, the “Tumor volume on day 0” value worked out at 147.7 ± 56.3 mm^3, the TGI worked out at 104.1% and the “Tumor volume on day 32” value was 79.2±51.8 mm^3. Further, in series [1], the “Tumor volume on day 37” value was 69.6±46.6 mm^3. Further, in series [2], the “Tumor volume on day 0” value is 39.2 ± 17.9 mm^3. Moreover, in series [2] (AZD9291 20 mg/kg), the TGI is −14.5% and the “Tumor volume on day 15” value was 1766.9±732.5 mm^3.
Regarding `C=CC(=O)Nc1cc(Nc2nccc(-c3cn(C4CC4)c4ccccc34)n2)c(OC)cc1N(C)CCN(C)C` [Almonertinib], the “cell status observed under microscope” value in the series on lung cancer KPL cells was “poor cell status”.
With `C=CC(=O)Nc1cc(Nc2nccc(-c3cn(C)c4ccccc34)n2)c(OC)cc1N(C)CCN(C)C` [AZD9291, Osimertinib], in the series with lung cancer KPL cells, the “cell status observed under microscope” value is “poor cell status”. For the same molecule, in series [3] (baseline, day of administration by groups, mean ± SD), the “Body weight on day 0” value is 19.9 g and 19.9 ± 0.9 g. The “Body weight on day 37” value in series [3] (day 37, AZD9291 3 mg/kg, IN10018 25 mg/kg, combination 3+25 mg/kg PO QD, mean ± SD) was 19.4 g and 19.4 ± 1.4 g. In addition, the “Rate of change in body weight” value in series [3] (day 37 vs day 0, AZD9291 3 mg/kg, IN10018 25 mg/kg, combination 3+25 mg/kg) was −2.2%. In series [3] (number of animals surviving on day 0/after administration, AZD9291 3 mg/kg, IN10018 25 mg/kg, combination 3+25 mg/kg), the “Animal Survival” value was 5/5. For the same molecule, in series [1], the “tumor growth inhibition compared with the blank control group” value is given as “obvious tumor growth inhibition”, the “Tumor volume on day 0” value came to 148.6 ± 59.6 mm^3, the TGI amounted to 107.7% and the “Tumor volume on day 32” value is recorded as 20.3±4.7 mm^3. Moreover, the “Tumor volume on day 37” value in series [1] turned out to be 17.0±6.7 mm^3. For the same molecule, in series [2] (AZD9291 20 mg/kg, AZD9291+IN10018 20+25 mg/kg, statistical difference from control), the “tumor growth inhibition compared with the blank control group” value is on record as “obvious tumor growth inhibition”. The “Tumor volume on day 0” value in series [2] is 37.9 ± 12.9 mm^3. Besides, in series [2] (AZD9291 20 mg/kg), the TGI came to 33.2% and the “Tumor volume on day 15” value is recorded as 1046.3±407.8 mm^3.
Take `C=CC(=O)Nc1cc(Nc2nccc(-c3cn(C)c4ccccc34)n2)c(OCC(F)(F)F)nc1N(C)CCN(C)C` [Alflutinib]: the “cell status observed under microscope” value in the series on lung cancer KPL cells is reported as “poor cell status”.
